Columns and labels:
Assay in all cases: Single nucleotide extension assay, steady-state kinetics (Table 2)
[1] = system: T1, Nc1nc(N)c2ncn([C@H]3C[C@H](O)[C@@H](COP(=O)(O)OP(=O)(O)OP(=O)(O)O)O3)c2n1; type: biochemical, Acinetobacter phage SH-Ab 15497; details: other: 37° C., pH7, 500 nM duplex X1648/X1649, average and standard deviation of three independent assays, pH 7.0
T1 construct: 3'-exonuclease-disabled D74A
Description: (§1) DpoZ genes from each bacteriophage were also cloned in the P15A plasmid pVDM18 previously described (Pezo et al., Sci Rep. 3, 1359 (2013)). Exonuclease mutants were constructed by site directed mutagenesis of pVDM18 Pol constructs using X1379/X1380 oligonucleotides for Vibrio phage PhiVC8 DNA pol (D85A mutation), X1865/X1866 for Arthrobacter phage Wayne DNA pol (D146A mutation), X1990/X1991 for Acinetobacter phage SH-Ab-15497 (D74A mutation), X1867/X1868 for Gordonia phage Ghobes DNA pol (D109A mutation) and X1601/X1602 for Klenow fragment of E. coli DNA pol I (D101A mutation). Mutations were verified by full sequencing of the constructs. These mutants were also sub-cloned into the pGEN452 vector downstream a His6-tag for protein expression
(§2) Kinetic parameters were determined in a single nucleotide extension assay using DNA polymerase mutants devoid of 3′exonuclease activity, followed by denaturing polyacrylamide gel electrophoresis of the extended products essentially as described (O'Flaherty and Guengerich, Current Protocols in Nucleic Acid Chemistry. 59 (2014)). The fluorescent oligonucleotide X1648 was annealed to X1649 template. Duplex substrates were used at 500 nM concentration in reaction buffer (20 mM TrisHCl pH7, 200 mM NaCl, 2 mM DTT, 5 mM MgCl2), with different enzymes concentrations and various dNTPs concentrations. Reactions were performed at 37° C. for variable times in conditions to remain in the confines of the steady-state kinetic model e.g. remaining below 20% of product formation (Creighton et al., Methods in Enzymology (Elsevier, 1995; https://linkinghub.elsevier.com/retrieve/pii/0076687995620214), vol. 262, pp. 232-256).
(§3) • The Km affinity constant and the kcat turnover number of 3′-exonuclease-disabled and His-tagged versions of DpoZ polymerases from Vibrio phage PhiVC8 and Acinetobacter phage SH-Ab 15497 are shown in comparison with PolA polymerase (Klenow fragment) from E. coli. The average and standard deviation of three independent assays carried out under the same conditions are given for each experiment.

[2] = system: T2, Nc1ncnc2c1ncn2[C@H]1C[C@H](O)[C@@H](COP(=O)(O)OP(=O)(O)OP(=O)(O)O)O1; type: biochemical, Acinetobacter phage SH-Ab 15497; details: other: 37° C., pH7, 500 nM duplex X1648/X1649, average and standard deviation of three independent assays, pH 7.0
T2 construct: 3'-exonuclease-disabled D74A
Description: as §1, §2, §3

[3] = system: T3, Nc1ncnc2c1ncn2[C@H]1C[C@H](O)[C@@H](COP(=O)(O)OP(=O)(O)OP(=O)(O)O)O1; type: biochemical, Vibrio phage PhiVC8; details: other: 37° C., pH7, 500 nM duplex X1648/X1649, average and standard deviation of three independent assays, pH 7.0
T3 construct: 3'-exonuclease-disabled D85A
Description: as §1, §2, §3

[4] = system: T4, Nc1nc(N)c2ncn([C@H]3C[C@H](O)[C@@H](COP(=O)(O)OP(=O)(O)OP(=O)(O)O)O3)c2n1; type: biochemical, Vibrio phage PhiVC8; details: other: 37° C., pH7, 500 nM duplex X1648/X1649, average and standard deviation of three independent assays, pH 7.0
T4 construct: 3'-exonuclease-disabled D85A
Description: as §1, §2, §3

[5] = biological target: T5, Acinetobacter phage SH-Ab 15497 DpoZ DNA polymerase (SEQ ID NO: 113), His-tagged, 3′-exonuclease-disabled mutant D74A (Acinetobacter phage SH-Ab 15497, UniProt A0A2H5BHJ5, D74A); type: biochemical; details: for Efficiency: catalytic efficiency, average and standard deviation of three independent assays
T5 construct: 3'-exonuclease-disabled D74A
T5 sequence (A0A2H5BHJ5 1-624 D74A): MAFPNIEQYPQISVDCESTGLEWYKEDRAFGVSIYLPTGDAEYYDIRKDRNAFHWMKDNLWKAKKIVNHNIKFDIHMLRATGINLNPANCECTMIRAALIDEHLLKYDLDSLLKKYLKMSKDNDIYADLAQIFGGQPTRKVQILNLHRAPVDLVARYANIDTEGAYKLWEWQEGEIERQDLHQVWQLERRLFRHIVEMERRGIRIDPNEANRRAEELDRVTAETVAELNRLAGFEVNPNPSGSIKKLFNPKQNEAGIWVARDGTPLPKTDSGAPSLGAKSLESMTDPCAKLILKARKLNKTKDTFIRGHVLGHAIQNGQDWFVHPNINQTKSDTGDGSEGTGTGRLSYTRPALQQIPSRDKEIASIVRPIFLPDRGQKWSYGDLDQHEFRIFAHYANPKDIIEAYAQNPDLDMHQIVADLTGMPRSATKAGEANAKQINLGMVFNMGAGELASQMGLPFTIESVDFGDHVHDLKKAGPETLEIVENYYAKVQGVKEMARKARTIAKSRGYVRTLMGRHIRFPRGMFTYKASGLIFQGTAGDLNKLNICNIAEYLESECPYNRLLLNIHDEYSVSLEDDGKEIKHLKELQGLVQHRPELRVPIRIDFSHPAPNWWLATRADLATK
Description: as §1, §2, §3

[6] = biological target: T6, E. coli PolA polymerase (Klenow fragment of E. coli DNA pol I, SEQ ID NO: 234), His-tagged, 3′-exonuclease-disabled mutant D101A (Escherichia coli, UniProt P00582, D424A); type: biochemical; details: for Efficiency: catalytic efficiency, average and standard deviation of three independent assays
T6 construct: 3'-exonuclease-disabled
Description: as §1, §2, §3

[7] = biological target: T7, Vibrio phage PhiVC8 DpoZ DNA polymerase (SEQ ID NO: 112), His-tagged, 3′-exonuclease-disabled mutant D85A (Vibrio phage phiVC8, UniProt G3FFN8, D85A); type: biochemical; details: for Efficiency: catalytic efficiency, average and standard deviation of three independent assays
T7 construct: 3'-exonuclease-disabled D85A
T7 sequence (G3FFN8 1-633 D85A): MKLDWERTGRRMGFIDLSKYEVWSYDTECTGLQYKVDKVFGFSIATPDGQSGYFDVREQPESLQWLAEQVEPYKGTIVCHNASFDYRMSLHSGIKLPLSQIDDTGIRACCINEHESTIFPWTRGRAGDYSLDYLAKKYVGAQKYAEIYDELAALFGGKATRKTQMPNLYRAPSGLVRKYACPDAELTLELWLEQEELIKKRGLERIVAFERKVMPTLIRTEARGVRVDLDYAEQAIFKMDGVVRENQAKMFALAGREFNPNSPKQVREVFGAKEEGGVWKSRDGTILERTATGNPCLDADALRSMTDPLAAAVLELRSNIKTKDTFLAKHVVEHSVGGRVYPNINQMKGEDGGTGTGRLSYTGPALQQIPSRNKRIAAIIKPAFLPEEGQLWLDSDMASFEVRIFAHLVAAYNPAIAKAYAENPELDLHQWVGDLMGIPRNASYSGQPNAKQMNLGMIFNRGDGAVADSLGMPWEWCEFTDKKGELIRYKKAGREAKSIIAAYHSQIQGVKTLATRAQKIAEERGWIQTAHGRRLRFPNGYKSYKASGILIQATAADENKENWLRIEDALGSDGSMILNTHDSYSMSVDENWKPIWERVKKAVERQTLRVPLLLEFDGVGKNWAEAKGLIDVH
Description: as §1, §2, §3

T6 sequence (P00582 with tags, fused parts or gaps D424A): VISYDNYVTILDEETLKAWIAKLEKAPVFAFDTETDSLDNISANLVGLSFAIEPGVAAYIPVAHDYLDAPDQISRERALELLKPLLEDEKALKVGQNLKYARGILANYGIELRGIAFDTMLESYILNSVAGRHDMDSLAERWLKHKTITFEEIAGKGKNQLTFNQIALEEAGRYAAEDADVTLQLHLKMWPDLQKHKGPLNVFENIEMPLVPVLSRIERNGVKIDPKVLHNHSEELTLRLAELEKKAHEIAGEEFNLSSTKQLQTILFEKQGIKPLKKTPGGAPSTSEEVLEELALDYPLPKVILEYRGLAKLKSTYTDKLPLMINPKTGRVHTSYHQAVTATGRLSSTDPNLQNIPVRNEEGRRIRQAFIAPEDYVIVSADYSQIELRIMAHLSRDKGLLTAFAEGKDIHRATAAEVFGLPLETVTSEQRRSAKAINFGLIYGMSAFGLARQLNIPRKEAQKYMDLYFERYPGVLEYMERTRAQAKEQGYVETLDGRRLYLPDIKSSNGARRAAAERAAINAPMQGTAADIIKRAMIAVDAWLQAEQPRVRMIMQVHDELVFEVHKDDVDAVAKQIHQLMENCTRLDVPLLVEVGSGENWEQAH

For “Acinetobacter phage SH-Ab 15497 DpoZ DNA polymerase (SEQ ID NO: 113), His-tagged, 3′-exonuclease-disabled mutant D74A (Acinetobacter phage SH-Ab 15497; D74A)”, the Km [1] was 1300 ± 360 µM, the kcat [1] was 0.29 ± 0.07 s⁻¹ and the Km [2] was 21400 ± 3400 µM. The kcat [2] was 0.16 ± 0.01 s⁻¹.
“Vibrio phage PhiVC8 DpoZ DNA polymerase (SEQ ID NO: 112), His-tagged, 3′-exonuclease-disabled mutant D85A (Vibrio phage phiVC8; D85A)” showed a Km [3] of 4500 ± 1380 µM, a kcat [3] of 0.21 ± 0.05 s⁻¹ and a Km [4] of 100 ± 20 µM. The kcat [4] was 0.42 ± 0.14 s⁻¹.
For `Nc1ncnc2c1ncn2[C@H]1C[C@H](O)[C@@H](COP(=O)(O)OP(=O)(O)OP(=O)(O)O)O1` [dATP, deoxyadenosine 5′-triphosphate], the Efficiency [5] was 0.008 ± 0.001 mM⁻¹ s⁻¹, the Efficiency [6] was 30.40 ± 5.82 mM⁻¹ s⁻¹ and the Efficiency [7] was 0.048 ± 0.017 mM⁻¹ s⁻¹.
`Nc1nc(N)c2ncn([C@H]3C[C@H](O)[C@@H](COP(=O)(O)OP(=O)(O)OP(=O)(O)O)O3)c2n1` [dZTP, 2-amino-2′-deoxyadenosine 5′-triphosphate] was tested, and the “factor in catalytic efficiency with dZTP relative to dATP” value (shortened to “factor … with dZTP relative to dATP”) [5] was 29 -fold, the Efficiency [5] was 0.23 ± 0.06 mM⁻¹ s⁻¹ and the “kcat^(Z)/kcat^(A)” value ([5]; kcat dZTP / kcat dATP) was 1.81. For the same compound, the “factor … with dZTP relative to dATP” value [6] was 0.5 -fold, the Efficiency [6] was 17.73 ± 4.96 mM⁻¹ s⁻¹ and the “kcat^(Z)/kcat^(A)” value ([6]; kcat dZTP / kcat dATP) was 0.68. The “factor … with dZTP relative to dATP” value [7] was 90 -fold, the Efficiency [7] was 4.35 ± 1.56 mM⁻¹ s⁻¹ and the “kcat^(Z)/kcat^(A)” value ([7]; kcat dZTP / kcat dATP) was 2.00.

— patent publication US20240182874A1, “NOVEL FAMILY OF DNA POLYMERASES ACCEPTING 2-AMINOADENINE AND REJECTING ADENINE IN THEIR SUBSTRATES” (THE EUROPEAN SYNDICATE OF SYNTHETIC SCIENTISTS AND …, priority 2021, published 2024)
